Source: article PMC7265429, “Characterization of a new small-molecule inhibitor of HDAC6 in glioblastoma” (Cell Death & Disease, 2020)

Test system: GNS166 cells
Experiment: Microarray whole-transcriptome gene expression analysis
Assay type: cell-based, human
Procedure: Whole-transcriptome analysis was performed from 300 ng of RNA using HuGene-2_0-st-v1 expression array (Affymetrix), which covers 48,226 transcripts. Raw data were first checked for quality purposes through the Affymetrix® Expression Console™ Software v1.4.1 and TAC software v4.0. Then, data were normalized using the Robust Multi-array Average (RMA) and analyzed by Limma tool. Probesets with FDR-corrected p-values smaller than 0.05 were selected. Functional enrichment on Gene Ontology (GO) biological processes was performed on a smaller subset of the differentially expressed genes (corrected p-value < 0.001) by means of Broad Institute GSEA. […] The data that support this study have been deposited in NCBI´s Gene Expression Omnibus and are accessible through GEO series accession number GSE143887.

[1] = sheet DMSO-SAHA_DOWN, microarray

O=C(CCCCCCC(=O)Nc1ccccc1)NO [SAHA, Suberoylanilide hydroxamic acid]
logFC ZNF85 (DMSO vs SAHA, downregulated, transcript TC1900007502.hg.1): -1.299 | logFC ZNF254 (DMSO vs SAHA, downregulated, transcript TC1900007622.hg.1): -1.436 | logFC AXL (DMSO vs SAHA, downregulated, transcript TC1900008143.hg.1): -2.335 | logFC KEAP1 (DMSO vs SAHA, downregulated, transcript TC1900009630.hg.1): -1.437 | logFC EMP3 (DMSO vs SAHA, downregulated, transcript TC1900011774.hg.1): -1.798 | logFC UBE2C (DMSO vs SAHA, downregulated, transcript TC2000007503.hg.1): -1.95 | logFC JPH2 (DMSO vs SAHA, downregulated, transcript TC2000009178.hg.1): -1.382 | logFC ZFP64 (DMSO vs SAHA, downregulated, transcript TC2000009469.hg.1): -1.251 | logFC AURKA (DMSO vs SAHA, downregulated, transcript TC2000009550.hg.1): -1.686 | logFC UCKL1 (DMSO vs SAHA, downregulated, transcript TC2000009848.hg.1): -1.222 | logFC MX1 (DMSO vs SAHA, downregulated, transcript TC2100007208.hg.1): -1.686 | logFC COL6A1 (DMSO vs SAHA, downregulated, transcript TC2100007446.hg.1): -1.16 | logFC SUMO3 (DMSO vs SAHA, downregulated, transcript TC2100008385.hg.1): -1.431 | logFC TRIOBP (DMSO vs SAHA, downregulated, transcript TC2200007313.hg.1): -1.456 | logFC MICALL1 (DMSO vs SAHA, downregulated, transcript TC2200007324.hg.1): -1.322 | logFC ZC3H7B (DMSO vs SAHA, downregulated, transcript TC2200007467.hg.1): -1.779 | logFC GTSE1 (DMSO vs SAHA, downregulated, transcript TC2200007662.hg.1): -1.615 | logFC TXNRD2 (DMSO vs SAHA, downregulated, transcript TC2200008001.hg.1): -1.47 | logFC PATZ1 (DMSO vs SAHA, downregulated, transcript TC2200008477.hg.1): -1.5057 | logFC NDUFA6 (DMSO vs SAHA, downregulated, transcript TC2200008859.hg.1): -1.148 | logFC APOBEC3B (DMSO vs SAHA, downregulated, transcript TC2200009270.hg.1): -1.723 | logFC APOBEC3C (DMSO vs SAHA, downregulated, transcript TC2200009271.hg.1): -1.685 | logFC RBX1 (DMSO vs SAHA, downregulated, transcript TC2200009278.hg.1): -1.233 | logFC TRMU (DMSO vs SAHA, downregulated, transcript TC2200009288.hg.1): -1.487 | logFC KIF15 (DMSO vs SAHA, downregulated, transcript TSUnmapped00000255.hg.1): -1.857 | logFC KIF15 (DMSO vs SAHA, downregulated, transcript TSUnmapped00000627.hg.1): -1.713 | logFC AES (transcript TC1900009272.hg.1) [1]: -1.167 | logFC APOBEC3G (transcript TC2200009274.hg.1) [1]: -1.162 | logFC ATF7 (transcript TC1200010809.hg.1) [1]: -0.8995 | logFC ATG4D (transcript TC1900006989.hg.1) [1]: -0.9381 | logFC ATP5G2 (transcript TC1200012798.hg.1) [1]: -0.8974 | logFC ATXN10 (transcript TC2200007626.hg.1) [1]: -0.8219 | logFC AVEN (transcript TC1500008971.hg.1) [1]: -1.4 | logFC B4GALT2 (transcript TC0100008082.hg.1) [1]: -1.044 | logFC BORCS7-ASMT (transcript TC1000012497.hg.1) [1]: -1.471 | logFC C1QBP (transcript TC1700012341.hg.1) [1]: -0.864 | logFC CARD8 (transcript TC1900011061.hg.1) [1]: -1.473 | logFC CD109 (transcript TC0600008539.hg.1) [1]: -1.058 | logFC CDC25B (transcript TC2000006559.hg.1) [1]: -1.166 | logFC COMT (transcript TC2200006623.hg.1) [1]: -1.056 | logFC CXCL14 (transcript TC0500012107.hg.1) [1]: -1.597 | logFC DENND2A (transcript TC0700012813.hg.1) [1]: -1.223 | logFC EOGT (transcript TC0300011448.hg.1) [1]: -1.387 | logFC FAM65B (transcript TC0600014247.hg.1) [1]: -1.186 | logFC FAM83D (transcript TC2000007341.hg.1) [1]: -1.0787 | logFC FBXO32 (transcript TC0800011683.hg.1) [1]: -1.239 | logFC FHL2 (transcript TC0200013750.hg.1) [1]: -1.323 | logFC GYG1 (transcript TC0300009126.hg.1) [1]: -0.8272 | logFC H2AFY2 (transcript TC1000007913.hg.1) [1]: -1.438 | logFC HGSNAT (transcript TC0800007460.hg.1) [1]: -1.179 | logFC HIST1H1E (transcript TC0600007273.hg.1) [1]: -0.9296 | logFC HIST1H2AK (transcript TC0600011228.hg.1) [1]: -1.094 | logFC HIST1H3G (transcript TC0600011142.hg.1) [1]: -1.091 | logFC HIST2H2AB (transcript TC0100015711.hg.1) [1]: -1.264 | logFC HMGB2 (transcript TC0400012432.hg.1) [1]: -1.248 | logFC HNF4G (transcript TC0800008002.hg.1) [1]: -1.665 | logFC HOXB6 (transcript TC1700012433.hg.1) [1]: -0.9482 | logFC HOXB7 (transcript TC1700012434.hg.1) [1]: -1.178 | logFC HSF2BP (transcript TC2100008306.hg.1) [1]: -1.094 | logFC KAT7 (transcript TC1700008216.hg.1) [1]: -0.9549 | logFC KIF15 (transcript TSUnmapped00000127.hg.1) [1]: -1.52 | logFC KIF15 (transcript TSUnmapped00000190.hg.1) [1]: -1.209 | logFC KIF15 (transcript TSUnmapped00000242.hg.1) [1]: -1.3548 | logFC KPNA2 (transcript TC1700008719.hg.1) [1]: -0.848 | logFC KRTCAP2 (transcript TC0100018498.hg.1) [1]: -0.9489 | logFC LOXL1 (transcript TC1500007829.hg.1) [1]: -1.906 | logFC LRRC41 (transcript TC0100014050.hg.1) [1]: -1.4599 | logFC MCPH1 (transcript TC0800006557.hg.1) [1]: -1.179 | logFC MRPL15 (transcript TC0800007653.hg.1) [1]: -1.399 | logFC MSRA (transcript TC0800006697.hg.1) [1]: -0.9684 | logFC MYBL2 (transcript TC2000007438.hg.1) [1]: -1.297 | logFC NCAPG2 (transcript TC0700013290.hg.1) [1]: -1.083 | logFC NFKB1 (transcript TC0400008271.hg.1) [1]: -1.316 | logFC NQO1 (transcript TC1600010732.hg.1) [1]: -1.465 | logFC PKNOX1 (transcript TC2100007278.hg.1) [1]: -1.264 | logFC PRRC2A (transcript TC0600007599.hg.1) [1]: -0.9194 | logFC PTPRE (transcript TC1000009296.hg.1) [1]: -0.9151 | logFC PTRHD1 (transcript TC0200011990.hg.1) [1]: -0.8388 | logFC RHNO1 (transcript TC1200012573.hg.1) [1]: -1.078 | logFC RUNX2 (transcript TC0600008146.hg.1) [1]: -1.088 | logFC SAMD9L (transcript TC0700011797.hg.1) [1]: -1.884 | logFC SCG2 (transcript TC0200015865.hg.1) [1]: -0.9206 | logFC SLC47A2 (transcript TC1700010035.hg.1) [1]: -1.04 | logFC SMARCB1 (transcript TC2200006862.hg.1) [1]: -1.487 | logFC TAPBP (transcript TC0600011536.hg.1) [1]: -0.9356 | logFC TAS2R13 (transcript TC1200009921.hg.1) [1]: -1.256 | logFC TFDP1 (transcript TC1300008144.hg.1) [1]: -0.8938 | logFC TK2 (transcript TC1600011551.hg.1) [1]: -1.009 | logFC TNFRSF12A (transcript TC1600006652.hg.1) [1]: -0.9964
